Test results from ChEMBL document CHEMBL3885861, “Open TG-GATES”.

Species on record: Rattus norvegicus
Assay: Open TG-GATES - Regimen: Single
Type: toxicity, organism-based, Sprague-Dawley
Design: regimen Single, gender Male, age 6 weeks
Details: in vivo, po, route gavage; for KIDNEY_L / KIDNEY_R / KIDNEY_TOTAL: tissue Kidney; for LIVER: tissue Liver; for ALP / ALT / AST / BUN / CRE / DBIL / GLC / IP / K / PL / RALB / TBIL / TC / TG / TP / gamma-GTP: tissue Plasma
[1] = 100 mg/kg, 3 h, tissue Blood, dose level Middle
[2] = 100 mg/kg, 3 h, dose level Middle
[3] = 100 mg/kg, 6 h, tissue Blood, dose level Middle
[4] = 100 mg/kg, 6 h, dose level Middle
[5] = 100 mg/kg, 9 h, tissue Blood, dose level Middle
[6] = 100 mg/kg, 9 h, dose level Middle
[7] = 100 mg/kg, 24 h, tissue Blood, dose level Middle
[8] = 100 mg/kg, 24 h, dose level Middle
[9] = 1000 mg/kg, 3 h, tissue Blood, dose level High
[10] = 1000 mg/kg, 3 h, dose level High
[11] = 1000 mg/kg, 6 h, tissue Blood, dose level High
[12] = 1000 mg/kg, 6 h, dose level High
[13] = 1000 mg/kg, 9 h, tissue Blood, dose level High
[14] = 1000 mg/kg, 9 h, dose level High
[15] = 1000 mg/kg, 24 h, tissue Blood, dose level High
[16] = 1000 mg/kg, 24 h, dose level High

Structure (SMILES): CC(C)OC(=O)C(C)(C)Oc1ccc(C(=O)c2ccc(Cl)cc2)cc1 [FENOFIBRATE]
- Bas [1]: 0.2%
- Eos [1]: 1%
- Fbg [1]: 289.2 mg/dL
- Ht [1]: 41%
- MCHC [1]: 32.3%
- Mono [1]: 3%
- RBC [1]: 610 x10_4/ul
- Ret [1]: 9.8%
- KIDNEY_L [2]: 0.8 g
- KIDNEY_R [2]: 0.8 g
- KIDNEY_TOTAL [2]: 1.6 g
- LIVER [2]: 8.2 g
- ALP [2]: 1478.6 IU/L
- ALT [2]: 46.6 IU/L
- AST [2]: 79 IU/L
- BUN [2]: 9.8 mg/dL
- CRE [2]: 0.2 mg/dL
- DBIL [2]: 0.012 mg/dL
- GLC [2]: 181.2 mg/dL
- IP [2]: 10.1 mg/dL
- K [2]: 4.3 meq/L
- PL [2]: 145.8 mg/dL
- RALB [2]: 2.6 g/dL
- TBIL [2]: 0.052 mg/dL
- TC [2]: 79.6 mg/dL
- TG [2]: 46.4 mg/dL
- TP [2]: 5.4 g/dL
- gamma-GTP [2]: 1.4 IU/L
- Bas [3]: 0.2%
- Eos [3]: 0.4%
- Fbg [3]: 261.4 mg/dL
- Ht [3]: 39.8%
- MCHC [3]: 32.3%
- Mono [3]: 2.8%
- RBC [3]: 591.2 x10_4/ul
- Ret [3]: 10.3%
- KIDNEY_L [4]: 0.8 g
- KIDNEY_R [4]: 0.8 g
- KIDNEY_TOTAL [4]: 1.6 g
- LIVER [4]: 7.5 g
- ALT [4]: 51.2 IU/L
- AST [4]: 85.8 IU/L
- BUN [4]: 8.4 mg/dL
- CRE [4]: 0.2 mg/dL
- DBIL [4]: 0.01 mg/dL
- GLC [4]: 173 mg/dL
- IP [4]: 9.8 mg/dL
- K [4]: 4.2 meq/L
- PL [4]: 130.8 mg/dL
- RALB [4]: 2.5 g/dL
- TBIL [4]: 0.054 mg/dL
- TC [4]: 69.6 mg/dL
- TG [4]: 37.2 mg/dL
- TP [4]: 5.2 g/dL
- gamma-GTP [4]: 1 IU/L
- Bas [5]: 0%
- Eos [5]: 1%
- Fbg [5]: 292.2 mg/dL
- Ht [5]: 39.2%
- Lym [5]: 69.2%
- MCHC [5]: 32.7%
- Mono [5]: 2.6%
- RBC [5]: 604 x10_4/ul
- Ret [5]: 10.3%
- KIDNEY_L [6]: 0.8 g
- KIDNEY_R [6]: 0.8 g
- KIDNEY_TOTAL [6]: 1.6 g
- LIVER [6]: 7 g
- ALP [6]: 1457.4 IU/L
- ALT [6]: 45 IU/L
- AST [6]: 83.2 IU/L
- BUN [6]: 6.8 mg/dL
- CRE [6]: 0.2 mg/dL
- DBIL [6]: 0.008 mg/dL
- GLC [6]: 159.8 mg/dL
- IP [6]: 9.6 mg/dL
- K [6]: 3.9 meq/L
- PL [6]: 125 mg/dL
- RALB [6]: 2.4 g/dL
- TBIL [6]: 0.054 mg/dL
- TC [6]: 70.8 mg/dL
- TG [6]: 29.2 mg/dL
- TP [6]: 5.3 g/dL
- gamma-GTP [6]: 1 IU/L
- Bas [7]: 0.2%
- Eos [7]: 0.8%
- Fbg [7]: 259.6 mg/dL
- Ht [7]: 38.8%
- MCHC [7]: 32.8%
- Mono [7]: 3.2%
- RBC [7]: 582.4 x10_4/ul
- Ret [7]: 8.5%
- KIDNEY_L [8]: 0.8 g
- KIDNEY_R [8]: 0.8 g
- KIDNEY_TOTAL [8]: 1.7 g
- LIVER [8]: 9.8 g
- ALP [8]: 1873.8 IU/L
- ALT [8]: 46.4 IU/L
- AST [8]: 74.4 IU/L
- BUN [8]: 13 mg/dL
- CRE [8]: 0.2 mg/dL
- DBIL [8]: 0.012 mg/dL
- GLC [8]: 187.8 mg/dL
- IP [8]: 8.9 mg/dL
- K [8]: 4.4 meq/L
- PL [8]: 122.6 mg/dL
- RALB [8]: 2.5 g/dL
- TBIL [8]: 0.04 mg/dL
- TC [8]: 68.6 mg/dL
- TG [8]: 36.4 mg/dL
- TP [8]: 5.3 g/dL
- gamma-GTP [8]: 1 IU/L
- Bas [9]: 0.2%
- Eos [9]: 0.6%
- Fbg [9]: 271.2 mg/dL
- Ht [9]: 40.6%
- MCHC [9]: 32.5%
- Mono [9]: 3.4%
- RBC [9]: 616.6 x10_4/ul
- Ret [9]: 10.6%
- KIDNEY_L [10]: 0.8 g
- KIDNEY_R [10]: 0.8 g
- KIDNEY_TOTAL [10]: 1.6 g
- LIVER [10]: 7.4 g
- ALT [10]: 43.2 IU/L
- AST [10]: 76.6 IU/L
- BUN [10]: 8.2 mg/dL
- CRE [10]: 0.2 mg/dL
- DBIL [10]: 0.018 mg/dL
- GLC [10]: 173.6 mg/dL
- IP [10]: 9.3 mg/dL
- K [10]: 4.3 meq/L
- PL [10]: 123.2 mg/dL
- RALB [10]: 2.5 g/dL
- TBIL [10]: 0.062 mg/dL
- TC [10]: 64.8 mg/dL
- TG [10]: 28 mg/dL
- TP [10]: 5.3 g/dL
- gamma-GTP [10]: 1.6 IU/L
- Bas [11]: 0%
- Eos [11]: 0.6%
- Fbg [11]: 253.6 mg/dL
- Ht [11]: 39.6%
- MCHC [11]: 32.5%
- Mono [11]: 2.4%
- RBC [11]: 609.8 x10_4/ul
- Ret [11]: 10%
- KIDNEY_L [12]: 0.8 g
- KIDNEY_R [12]: 0.8 g
- KIDNEY_TOTAL [12]: 1.6 g
- LIVER [12]: 7.4 g
- ALP [12]: 1256 IU/L
- ALT [12]: 43.4 IU/L
- AST [12]: 75.4 IU/L
- BUN [12]: 7 mg/dL
- CRE [12]: 0.2 mg/dL
- DBIL [12]: 0.02 mg/dL
- GLC [12]: 170.4 mg/dL
- IP [12]: 9 mg/dL
- K [12]: 4.2 meq/L
- PL [12]: 116.8 mg/dL
- RALB [12]: 2.5 g/dL
- TBIL [12]: 0.058 mg/dL
- TC [12]: 60 mg/dL
- TG [12]: 28.6 mg/dL
- TP [12]: 5.2 g/dL
- gamma-GTP [12]: 1.2 IU/L
- Bas [13]: 0%
- Eos [13]: 0.6%
- Fbg [13]: 283.6 mg/dL
- Ht [13]: 39.8%
- MCHC [13]: 32.3%
- Mono [13]: 1.8%
- RBC [13]: 609.2 x10_4/ul
- Ret [13]: 8.8%
- KIDNEY_L [14]: 0.8 g
- KIDNEY_R [14]: 0.8 g
- KIDNEY_TOTAL [14]: 1.6 g
- LIVER [14]: 6.9 g
- ALP [14]: 1470.4 IU/L
- ALT [14]: 48.4 IU/L
- AST [14]: 90.4 IU/L
- BUN [14]: 8 mg/dL
- CRE [14]: 0.2 mg/dL
- DBIL [14]: 0.014 mg/dL
- GLC [14]: 152.2 mg/dL
- IP [14]: 8.5 mg/dL
- K [14]: 3.8 meq/L
- PL [14]: 119 mg/dL
- RALB [14]: 2.5 g/dL
- TBIL [14]: 0.048 mg/dL
- TC [14]: 62.4 mg/dL
- TG [14]: 32.2 mg/dL
- TP [14]: 5.3 g/dL
- gamma-GTP [14]: 1 IU/L
- Bas [15]: 0%
- Eos [15]: 1%
- Fbg [15]: 259 mg/dL
- Ht [15]: 39.4%
- MCHC [15]: 32.5%
- Mono [15]: 3.6%
- RBC [15]: 603.8 x10_4/ul
- Ret [15]: 9.1%
- KIDNEY_L [16]: 0.8 g
- KIDNEY_R [16]: 0.8 g
- KIDNEY_TOTAL [16]: 1.7 g
- LIVER [16]: 9.6 g
- ALT [16]: 53 IU/L
- AST [16]: 84.4 IU/L
- BUN [16]: 13.6 mg/dL
- CRE [16]: 0.2 mg/dL
- DBIL [16]: 0.014 mg/dL
- GLC [16]: 172.2 mg/dL
- IP [16]: 8.7 mg/dL
- K [16]: 4.3 meq/L
- PL [16]: 112.4 mg/dL
- RALB [16]: 2.5 g/dL
- TBIL [16]: 0.048 mg/dL
- TC [16]: 57.2 mg/dL
- TG [16]: 31.6 mg/dL
- TP [16]: 5.3 g/dL
- gamma-GTP [16]: 1 IU/L
